From patent EP3037527A1, “Sialyltransferase without CMP-dependent sialidase activity” (F. Hoffmann-La Roche AG, priority 2014, dated 2016)

Legend:
[1] = biological target: T1, α-2,6-sialyltransferase from rat liver (Rattus norvegicus, UniProt P13721); conditions: each inhibitor tested at a concentration of 0.25 mM; cited from earlier work
T1 construct: host or cells: rat liver
T1 sequence (P13721 1-403): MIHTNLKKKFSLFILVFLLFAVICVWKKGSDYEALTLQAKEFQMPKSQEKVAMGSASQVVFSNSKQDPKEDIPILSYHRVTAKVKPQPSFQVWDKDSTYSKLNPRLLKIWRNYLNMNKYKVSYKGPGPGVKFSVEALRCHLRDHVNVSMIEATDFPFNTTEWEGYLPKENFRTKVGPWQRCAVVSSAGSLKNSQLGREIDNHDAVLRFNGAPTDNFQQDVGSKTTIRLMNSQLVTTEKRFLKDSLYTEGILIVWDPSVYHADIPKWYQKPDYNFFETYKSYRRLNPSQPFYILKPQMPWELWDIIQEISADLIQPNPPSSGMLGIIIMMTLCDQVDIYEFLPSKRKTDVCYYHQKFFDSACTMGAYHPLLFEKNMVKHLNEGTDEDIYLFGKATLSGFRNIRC

Δ89 hST6Gal-I = biological target: T2, Δ89 hST6Gal-I (Homo sapiens, UniProt P15907); assay: Inhibition of sialidase activity of Δ89 hST6Gal-I by CTP; assay type: biochemical
T2 construct: Erythropoietin signal peptide (Epo) (N, cleaved yes); AP spacer (two amino acids) (N, cleaved yes); made in house; host or cells: HEK 293 cells (transient expression, secreted)
T2 sequence (P15907 90-406): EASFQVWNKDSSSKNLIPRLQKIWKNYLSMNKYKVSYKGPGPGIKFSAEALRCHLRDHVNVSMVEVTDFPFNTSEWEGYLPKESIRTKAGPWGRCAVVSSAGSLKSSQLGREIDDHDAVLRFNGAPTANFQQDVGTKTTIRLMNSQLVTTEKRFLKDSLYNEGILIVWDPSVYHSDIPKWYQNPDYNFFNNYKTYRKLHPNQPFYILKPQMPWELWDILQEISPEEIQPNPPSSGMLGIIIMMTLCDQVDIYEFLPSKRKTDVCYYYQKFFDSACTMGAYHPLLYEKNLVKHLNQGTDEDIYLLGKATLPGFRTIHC
Description: A highly galactosylated humanized monoclonal antibody IgG4 MAB was used in sialylation experiments. The reaction mixture contained IgG4 MAB (300 µg in 55 µL 35 mM sodium actetate/Tris buffer pH 7.0), the donor substrate CMP-NANA (150 µg in 50 µL water) and sialyltransferase (30 µg Δ89 hST6Gal-I in 20 mM potassium phosphate, 0.1 M NaCl, pH 6.5). The samples were incubated at 37°C for a defined time. To stop the reaction the samples were frozen at -20°C. For mass analysis 100 µL denaturing buffer (6 M guanidinium chloride) and 30 µL TCEP (= tris(2-carboxyethyl)phosphine; 0.1 mM, diluted in denaturing buffer) were added to the samples and the samples were incubated at 37°C for 1 h. The samples were buffered in electrospray medium [20% ACN (= acetonitrile), 1% FA (= […])] using pre-equilibrated illustra™ Nap5-Columns (GE-Healthcare). Samples were analyzed by electrospray ionization mass spectrometry and the content of G2+0SA, G2+1SA and G2+2SA N-glycans was determined. A Micromass Q-Tof Ultima and a Synapt G2 HDMS device (Waters UK) were used, the software used was MassLynx V 4.1. […]
The compound cytidine-5'-triphosphate (CTP) is a known potent inhibitor of sialyltransferases (Scudder PR & Chantler EN BBA 660 (1981) 136-141). […] At different times samples were taken and the content of G2+0SA, G2+1SA and G2+2SA was determined by mass spectrometry. […]

Row | SMILES | inhibition of α-2,6-sialyltransferase [1] | degradation of G2+2SA caused by the sialidase activity (Δ89 hST6Gal-I; CTP 0.67 mM, compared to inhibitor-free conditions) | G2+2SA still present (Δ89 hST6Gal-I; after 72 h of incubation, CTP added after 7 h, final concentration 0.67 mM)
1 | Nc1ccn([C@@H]2O[C@H](CO)[C@@H](O)[C@H]2OP(=O)(O)O)c(=O)n1 [2'-CMP] | 40% |  | 
2 | Nc1ccn([C@@H]2O[C@H](CO)[C@@H](OP(=O)(O)O)[C@H]2O)c(=O)n1 [3'-CMP] | 39% |  | 
3 | Nc1ccn([C@@H]2O[C@H](COP(=O)(O)O)[C@@H](O)[C@H]2O)c(=O)n1 [5'-CMP, Cytidine monophosphate] | 71% |  | 
4 | Nc1ccn([C@@H]2O[C@H](COP(=O)(O)OP(=O)(O)OP(=O)(O)O)[C@@H](O)[C@H]2O)c(=O)n1 [CTP, cytidine-5'-triphosphate] |  | significantly reduced | 73%
5 | Nc1ccn([C@@H]2O[C@H](CO)[C@@H](O)[C@H]2O)c(=O)n1 [Cytidine] | 70% |  | 
